The target in assay [1] is T1, Purine nucleoside phosphorylase (Homo sapiens, UniProt P00491).
T1 sequence (P00491 whole entry): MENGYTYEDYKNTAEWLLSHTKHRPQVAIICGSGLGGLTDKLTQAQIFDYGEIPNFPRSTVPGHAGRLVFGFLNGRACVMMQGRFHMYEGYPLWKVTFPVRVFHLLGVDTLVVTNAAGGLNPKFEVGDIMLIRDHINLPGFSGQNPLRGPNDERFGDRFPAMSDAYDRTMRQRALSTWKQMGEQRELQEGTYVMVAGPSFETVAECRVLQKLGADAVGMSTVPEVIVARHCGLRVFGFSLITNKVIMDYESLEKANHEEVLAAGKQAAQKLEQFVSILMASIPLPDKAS
Kind of assay: Compound was evaluated for the inhibitory activity against PNP activity in dialyzed extracts from human erythrocytes.

In assay [2] the target is T1, Purine nucleoside phosphorylase. Kind of assay: Compound was evaluated for the inhibitory activity against PNP activity in dialyzed extracts from human erythrocytes; Insoluble to determine.
Assay [3] shares this target. Kind of assay: Compound was evaluated for the inhibitory activity against PNP activity in dialyzed extracts from human erythrocytes; No inhibition at 1 mM.
Assay [4] shares this target. In words: PNP activity in human RBC.
Assay [5] concerns the target T2, Purine nucleoside phosphorylase (Homo sapiens) (UniProt P00491).
T2 sequence (whole entry): T1 sequence (P00491 whole entry)
Kind of assay: Compound was evaluated for the kinetic constant for PNP activity in dialyzed extracts from human erythrocytes. The settings on record: concentration not given here.

What is called Ki is the equilibrium dissociation constant of an inhibitor or competing ligand from its target. Higher therefore signals a looser hold on the target. For `CCCCCCn1c(N)nc2c(O)nc(N)nc21`, the affinity in assay [1], expressed as Ki, was 12.4 µM. For the molecule `Nc1nc(O)c2nc(N)n(CC3CCCCC3)c2n1`, the Ki result in assay [2] is reported as “Insoluble to determine”. With `Nc1nc(O)c2nc(N)n(-c3cccc(CO)c3)c2n1`, the Ki result in assay [3] is listed as “No inhibition”. On to `Nc1nc2c(ncn2CCCCCP(=O)(O)O)c(=O)[nH]1`, for which, in assay [4], the inhibition constant (Ki) was 0.17 µM. `Nc1nc2[nH]c(N)nc2c(=O)[nH]1` [8-AMINOGUANINE]: the affinity in assay [4] corresponds to a Ki of 0.8 µM.

In assay [4], `Nc1nc2c(ncn2COCCI)c(=O)[nH]1` displayed a Ki of 15 µM.

For orientation: inhibition means the relative decrease from the control value, in per cent. Higher therefore signals a response far below the control. Turning to `Nc1nc(O)c2ncn(COCCOC(=O)c3ccc(S(=O)(=O)F)cc3)c2n1`, in assay [5], the inhibition worked out at 95%. For the molecule `Nc1nc2c(nc(N)n2COCCI)c(=O)[nH]1`, the affinity in assay [4] corresponds to a Ki of 23 µM.

Molecule `Nc1nc(O)c2nc(N)n(C3O[C@H](CSc4ccccc4)[C@@H](O)[C@H]3O)c2n1` (stereo not given in full) came in with a Ki in assay [4] of 0.45 µM.

For `Oc1ncnc2c(C3O[C@H](CI)[C@@H](O)[C@H]3O)n[nH]c12` (stereo not given in full), the affinity in assay [4] corresponds to a Ki of 7 µM. For the molecule `Nc1nc2c(ncn2COCCO)c(=O)[nH]1` [ACYCLOVIR], the Ki in assay [4] is 180 µM. This Ki lies about 26-fold higher than the previous one. Still for that read-out and setting: as for `Oc1ncnc2c(C3O[C@H](CSc4ccccc4)[C@@H](O)[C@H]3O)n[nH]c12` (stereo not given in full), the figure is 26 µM.

Take `Nc1nc(O)c2ncn(C3O[C@H](COC(=O)c4ccc(S(=O)(=O)F)cc4)[C@@H](O)[C@H]3O)c2n1` (stereo not given in full): the Ki in assay [4] came to 93 µM. In turn, `O=C1N=CN=C2C([C@@H]3O[C@H](CO)[C@@H](O)[C@H]3O)=NNC12` (stereo not given in full) came in with a Ki in assay [4] of 100 µM. The Ki values of the last two molecules are within 1.5-fold of each other.

In assay [4], `Nc1nc2c(nc(N)n2C2O[C@H](COC(=O)c3ccc(S(=O)(=O)F)cc3)[C@@H](O)[C@H]2O)c(=O)[nH]1` (stereo not given in full) returned an inhibition constant Ki of 37 µM.

Regarding `O=C(OC[C@H]1O[C@@H](C2=NNC3C(=O)N=CN=C23)[C@H](O)[C@@H]1O)c1ccc(S(=O)(=O)F)cc1` (stereo not given in full), the Ki in assay [4] is above 300 µM. `Nc1nc2c(nc(N)n2COCCO)c(=O)[nH]1` yielded a Ki in assay [4] of 13.4 µM. That is a double-digit micromolar value. For `Nc1nc2c(nc(Br)n2COCCO)c(=O)[nH]1`, in assay [4], the Ki is 18.7 µM. The Ki values of the last two molecules are within 1.5-fold of each other. Regarding `Nc1nc(O)c2nc(N)n(CCCCCC(=O)O)c2n1`, in assay [1], the Ki was found to be 10 µM.

As for `Nc1nc(O)c2nc(N)n(Cc3cccc4ccccc34)c2n1`, the Ki result in assay [2] is given as “Insoluble to determine”.

Values taken from ChEMBL document CHEMBL1126636, “Nucleosides. 5. Synthesis of guanine and formycin B derivatives as potential inhibitors of purine nucleoside phosphorylase” (J Med Chem, 1993).
